{"source": "patent US20040014215A1", "about": "“Synchronised arabidopsis cell suspensions and uses thereof” (priority 2000, published 2004)", "tested_on": "Arabidopsis cell suspension MM2d", "assay": "Aphidicolin block/release of MM2d: proportion of G1, S and G2 cells by flow cytometry", "type": "cell-based, Arabidopsis thaliana", "experimental": "The level of synchronicity of the Arabidopsis cell suspension culture MM1 was analysed by flow cytometry. The cell pellet from 5 ml of cell suspension culture was frozen in liquid nitrogen. To analyse the DNA content, the High Resolution Kit for Plant ploidy analysis (Type P) (Partec, Cat. No. 06-5-4004) was used, containing solution A (to release cell nuclei) and solution B (to stain DNA with DAPI). A sample of the frozen cell pellet was transferred into a small petri-dish (5 cm diameter), 150 μl of solution A was added, and the sample was carefully chopped with vertical motion of a sharp razor blade. An additional 150 μl of solution A was added, the cell suspension pipetted up and down for several time before leaving for approximately 2 min at RT. The released cell nuclei were filtered through a 50 μm nylon mesh (Partec, CellTrics 50 μm, Cat. No. 06-4-2317) and 1 ml of solution B was added to the filtrate. On average 8200 particles were counted with a flow cytometer (PASIII; Partec GmbH, Germany), using HBO lamp excitation (Partec, mercury lamp HBO 100 long life, 100W) and detection of emission using a blue filter. Cell cycle phases were analysed using Multicycle for Windows (Phoenix Flow Systems, San Diego, Calif.). Flow cytometry results are not corrected for the mitotic cells (which are not measured by this method).\nThis experiment was carried out as described for Example 1, except that cell line MM2d was used, and the culture conditions throughout the experiment were as described for MM2d in Example 1.\nSynchronisation was performed as described in Example 2A, with the exception that before adding aphidicolin, 20 ml of the weekly subcultured cell suspension was transferred into 100 ml fresh MSS-medium in each of 2 separate flasks and cultivated under conditions as described in Example 1 for MM2d. […] Samples were taken at the same time frame for flow cytometry to follow cell cycle transition.\nSamples were analysed by flow cytometry to determine the percentage of cells being in G1-, S- and G2M phase. The mitotic index (MI) and labelling index (LI) were independently determined (as described in Example 2A). Results are shown below in table II and in FIG. 1.\nTable II. Aphidicolin block/release of Arabidopsis cell suspension MM2d. Data are shown from analysis of samples obtained in the experiment described in Example 2B."}
{"compound": "C[C@@]1(CO)[C@H](O)CC[C@@]2(C)[C@H]1CC[C@H]1C[C@@H]3C[C@@]12CC[C@]3(O)CO", "note": "[aphidicolin]", "values": [{"measurement": "G1 (%) MM2d", "setting": "0 h after aphidicolin removal", "result": 46.9, "unit": "%"}, {"measurement": "G2 (%) MM2d", "setting": "0 h after aphidicolin removal", "result": 16.4, "unit": "%"}, {"measurement": "S (%) MM2d", "setting": "0 h after aphidicolin removal", "result": 36.6, "unit": "%"}, {"measurement": "G1 (%) MM2d", "setting": "1 h after aphidicolin removal", "result": 16.6, "unit": "%"}, {"measurement": "G2 (%) MM2d", "setting": "1 h after aphidicolin removal", "result": 4.9, "unit": "%"}, {"measurement": "S (%) MM2d", "setting": "1 h after aphidicolin removal", "result": 78.6, "unit": "%"}, {"measurement": "G1 (%) MM2d", "setting": "2 h after aphidicolin removal", "result": 21.5, "unit": "%"}, {"measurement": "G2 (%) MM2d", "setting": "2 h after aphidicolin removal", "result": 5.3, "unit": "%"}, {"measurement": "S (%) MM2d", "setting": "2 h after aphidicolin removal", "result": 73.2, "unit": "%"}, {"measurement": "G1 (%) MM2d", "setting": "3 h after aphidicolin removal", "result": 24.8, "unit": "%"}, {"measurement": "G2 (%) MM2d", "setting": "3 h after aphidicolin removal", "result": 11.2, "unit": "%"}, {"measurement": "S (%) MM2d", "setting": "3 h after aphidicolin removal", "result": 64.1, "unit": "%"}, {"measurement": "G1 (%) MM2d", "setting": "4 h after aphidicolin removal", "result": 18.8, "unit": "%"}, {"measurement": "G2 (%) MM2d", "setting": "4 h after aphidicolin removal", "result": 48.2, "unit": "%"}, {"measurement": "S (%) MM2d", "setting": "4 h after aphidicolin removal", "result": 33, "unit": "%"}, {"measurement": "G1 (%) MM2d", "setting": "5 h after aphidicolin removal", "result": 15.1, "unit": "%"}, {"measurement": "G2 (%) MM2d", "setting": "5 h after aphidicolin removal", "result": 74.8, "unit": "%"}, {"measurement": "S (%) MM2d", "setting": "5 h after aphidicolin removal", "result": 10.1, "unit": "%"}, {"measurement": "G1 (%) MM2d", "setting": "6 h after aphidicolin removal", "result": 12.5, "unit": "%"}, {"measurement": "G2 (%) MM2d", "setting": "6 h after aphidicolin removal", "result": 80.6, "unit": "%"}, {"measurement": "S (%) MM2d", "setting": "6 h after aphidicolin removal", "result": 6.9, "unit": "%"}, {"measurement": "G1 (%) MM2d", "setting": "7 h after aphidicolin removal", "result": 10.5, "unit": "%"}, {"measurement": "G2 (%) MM2d", "setting": "7 h after aphidicolin removal", "result": 89.5, "unit": "%"}, {"measurement": "S (%) MM2d", "setting": "7 h after aphidicolin removal", "result": 0, "unit": "%"}, {"measurement": "G1 (%) MM2d", "setting": "8 h after aphidicolin removal", "result": 9, "unit": "%"}, {"measurement": "G2 (%) MM2d", "setting": "8 h after aphidicolin removal", "result": 91, "unit": "%"}, {"measurement": "S (%) MM2d", "setting": "8 h after aphidicolin removal", "result": 0, "unit": "%"}, {"measurement": "G1 (%) MM2d", "setting": "9 h after aphidicolin removal", "result": 7.6, "unit": "%"}, {"measurement": "G2 (%) MM2d", "setting": "9 h after aphidicolin removal", "result": 92.4, "unit": "%"}, {"measurement": "S (%) MM2d", "setting": "9 h after aphidicolin removal", "result": 0, "unit": "%"}, {"measurement": "G1 (%) MM2d", "setting": "10 h after aphidicolin removal", "result": 10.1, "unit": "%"}, {"measurement": "G2 (%) MM2d", "setting": "10 h after aphidicolin removal", "result": 89.6, "unit": "%"}, {"measurement": "S (%) MM2d", "setting": "10 h after aphidicolin removal", "result": 0, "unit": "%"}, {"measurement": "G1 (%) MM2d", "setting": "11 h after aphidicolin removal", "result": 17.2, "unit": "%"}, {"measurement": "G2 (%) MM2d", "setting": "11 h after aphidicolin removal", "result": 82.8, "unit": "%"}, {"measurement": "S (%) MM2d", "setting": "11 h after aphidicolin removal", "result": 0, "unit": "%"}, {"measurement": "G1 (%) MM2d", "setting": "12 h after aphidicolin removal", "result": 27.7, "unit": "%"}, {"measurement": "G2 (%) MM2d", "setting": "12 h after aphidicolin removal", "result": 72.3, "unit": "%"}, {"measurement": "S (%) MM2d", "setting": "12 h after aphidicolin removal", "result": 0, "unit": "%"}, {"measurement": "G1 (%) MM2d", "setting": "13 h after aphidicolin removal", "result": 32.1, "unit": "%"}, {"measurement": "G2 (%) MM2d", "setting": "13 h after aphidicolin removal", "result": 67.9, "unit": "%"}, {"measurement": "S (%) MM2d", "setting": "13 h after aphidicolin removal", "result": 0, "unit": "%"}, {"measurement": "G1 (%) MM2d", "setting": "14 h after aphidicolin removal", "result": 34.3, "unit": "%"}, {"measurement": "G2 (%) MM2d", "setting": "14 h after aphidicolin removal", "result": 65.7, "unit": "%"}, {"measurement": "S (%) MM2d", "setting": "14 h after aphidicolin removal", "result": 0, "unit": "%"}, {"measurement": "G1 (%) MM2d", "setting": "15 h after aphidicolin removal", "result": 40.7, "unit": "%"}, {"measurement": "G2 (%) MM2d", "setting": "15 h after aphidicolin removal", "result": 59.3, "unit": "%"}, {"measurement": "S (%) MM2d", "setting": "15 h after aphidicolin removal", "result": 0, "unit": "%"}, {"measurement": "G1 (%) MM2d", "setting": "16 h after aphidicolin removal", "result": 34.9, "unit": "%"}, {"measurement": "G2 (%) MM2d", "setting": "16 h after aphidicolin removal", "result": 59.4, "unit": "%"}, {"measurement": "S (%) MM2d", "setting": "16 h after aphidicolin removal", "result": 5.8, "unit": "%"}, {"measurement": "G1 (%) MM2d", "setting": "17 h after aphidicolin removal", "result": 40.8, "unit": "%"}, {"measurement": "G2 (%) MM2d", "setting": "17 h after aphidicolin removal", "result": 52, "unit": "%"}, {"measurement": "S (%) MM2d", "setting": "17 h after aphidicolin removal", "result": 7.3, "unit": "%"}, {"measurement": "G1 (%) MM2d", "setting": "18 h after aphidicolin removal", "result": 40.7, "unit": "%"}, {"measurement": "G2 (%) MM2d", "setting": "18 h after aphidicolin removal", "result": 47.9, "unit": "%"}, {"measurement": "S (%) MM2d", "setting": "18 h after aphidicolin removal", "result": 11.3, "unit": "%"}, {"measurement": "G1 (%) MM2d", "setting": "19 h after aphidicolin removal", "result": 38.4, "unit": "%"}, {"measurement": "G2 (%) MM2d", "setting": "19 h after aphidicolin removal", "result": 47.3, "unit": "%"}, {"measurement": "S (%) MM2d", "setting": "19 h after aphidicolin removal", "result": 14.4, "unit": "%"}, {"measurement": "G1 (%) MM2d", "setting": "20 h after aphidicolin removal", "result": 37.7, "unit": "%"}, {"measurement": "G2 (%) MM2d", "setting": "20 h after aphidicolin removal", "result": 45.5, "unit": "%"}, {"measurement": "S (%) MM2d", "setting": "20 h after aphidicolin removal", "result": 16.9, "unit": "%"}, {"measurement": "maximum G2 synchrony", "setting": "MM2d, flow cytometry", "result": 90, "unit": "%"}, {"measurement": "maximum S phase synchrony", "setting": "MM2d, flow cytometry", "result": 79, "unit": "%"}]}
